Measurements from US8415391B2, “3.2.1-bicyclo-octene and -octane compounds” (International Flavors & Fragrances Inc., priority 2010, dated 2013).

How the values were obtained:
[1] = Mold/mildew malodor coverage, panel sniff test with proprietary malodor model; set-up: species or system human; details: compound 10% in solvent; 1 h equilibration in 8 oz jar; 15-18 panelists; scale 1 (No Coverage) to 5 (Excellent Coverage)
Method: (§1) It is known that the perspirative malodors of human body, particularly sweat, are associated with the production of several unpleasant smelling organic acids, particularly isovaleric acid (“IVA”). The commercial sample of this malodorous material (commercially available at Sigma-Aldrich Inc.) was thus used as a model compound to assess the effectiveness of sweat malodor counteractants. The mold/mildew malodor model was prepared based on applicant's proprietary formulations for assessing the effectiveness of mold/mildew malodor counteractants.
(§2) Two aluminum dishes were placed in an 8 oz glass jar. A malodor material was pipetted into one aluminum dish, and a compound of the present invention diluted in a solvent (10%) or a solvent alone control was pipetted into the other aluminum dish. The jar was then capped and the samples were allowed to equilibrate for one hour before the testing.
(§3) Test samples were presented in a blind and random order to 15-18 internal panelists (consisting of men/women with an age range of 25 to 55). However, different odor samples were arranged in an alternative order (for example, sweat, mold/mildew, sweat, mold/mildew, and etc.).
(§4) The panelists were instructed to take the steps of i) sniff jars containing only the malodor materials for familiarization prior to the testing; ii) uncap a jar; iii) place their noses at a distance of about 3-4 inches above the opening; iv) take short sniffs for 3 seconds; and v) provide a rank of the malodor coverage using an intensity scale of 1 to 5, where 1 represents “No Coverage”, 3 represents “Moderate Coverage”, and 5 represents “Excellent Coverage”. The means for each sample was then calculated.

[2] = Sweat malodor coverage, panel sniff test with isovaleric acid model; set-up: species or system human; details: compound 10% in solvent; 1 h equilibration in 8 oz jar; 15-18 panelists; scale 1 (No Coverage) to 5 (Excellent Coverage)
Method: as §1, §2, §3, §4

[3] = Vapor pressure; format: physicochemical

SMILES	Mold/Mildew Malodor, mean rank of malodor coverage [1]	Sweat Malodor, mean rank of malodor coverage [2]	Vapor Pressure [3]
CC1=CCC2(C)CCC1C2 (stereo not drawn) [Structure I, 2,5-dimethyl-bicyclo[3.2.1]oct-2-ene]	3.32	3.90	28652 µg/L
CC(=O)OC1CC2(C)CCC(C2)C1C (stereo not drawn) [Structure IV, acetic acid 1,4-dimethyl-bicyclo[3.2.1]oct-3-yl ester]	2.96	3.09	1091 µg/L
COC(=O)OC1CC2(C)CCC(C2)C1C (stereo not drawn) [Structure V, carbonic acid 1,4-dimethyl-bicyclo[3.2.1]oct-3-yl ester methyl ester]	2.49	2.42	406 µg/L
